According to PubChem BioAssay AID256 (DTP/NCI, 2004):
Values joined by “and” are separate entries in the source; they are usually repeats but may differ in a detail not shown here. Equal entries are not always repeated. Toxic doses and inconclusive results are not listed.

Tested on: CD2F1 mice, L1210 leukemia ip, survival T/C
Assay: NCI In Vivo Anticancer Drug Screen. Data for tumor model L1210 Leukemia (intraperitoneal) in CD2F1 (CDF1) mice
Conditions: higher = longer survival
Method in brief: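 Transplantable tumor in mice; compound-treated vs vehicle-treated groups. Read-out = treated/control ratio of the measured endpoint.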

## COc1cccc2c1C(=O)c1c(O)c3c(c(O)c1C2=O)C[C@@](O)(/C(C)=N/NC(=O)c1ccccc1)C[C@@H]3OC1CC(N)C(O)C(C)O1 (some centres not stated)
endpoint: mean survival time, dose: 0.5 mg/kg/injection, schedule: Q04DX003 (ip), vehicle: water
  T/C: 91 % of control
endpoint: mean survival time, dose: 0.65 mg/kg/injection, schedule: Q01DX009 (ip), vehicle: saline
  T/C: 117 % of control
endpoint: mean survival time, dose: 1.0 mg/kg/injection, schedule: Q01DX009 (ip), vehicle: water
  T/C: 107 % of control
endpoint: mean survival time, dose: 1.0 mg/kg/injection, schedule: Q04DX003 (ip), vehicle: water
  T/C: 91 % of control
endpoint: mean survival time, dose: 1.08 mg/kg/injection, schedule: Q01DX009 (ip), vehicle: saline
  T/C: 120 % of control
endpoint: mean survival time, dose: 2.0 mg/kg/injection, schedule: Q01DX009 (ip), vehicle: water
  T/C: 113 % of control
endpoint: mean survival time, dose: 2.0 mg/kg/injection, schedule: Q04DX003 (ip), vehicle: water
  T/C: 96 % of control
endpoint: mean survival time, dose: 3.0 mg/kg/injection, schedule: Q01DX009 (ip), vehicle: saline
  T/C: 150 % of control
endpoint: mean survival time, dose: 3.0 mg/kg/injection, schedule: Q04DX003 (ip), vehicle: saline
  T/C: 160 % of control
endpoint: mean survival time, dose: 4.0 mg/kg/injection, schedule: Q01DX009 (ip), vehicle: water
  T/C: 120 % of control
endpoint: mean survival time, dose: 4.0 mg/kg/injection, schedule: Q04DX003 (ip), vehicle: water
  T/C: 105 % of control
endpoint: mean survival time, dose: 5.0 mg/kg/injection, schedule: Q04DX003 (ip), vehicle: saline
  T/C: 163 % of control
endpoint: mean survival time, dose: 8.0 mg/kg/injection, schedule: Q01DX009 (ip), vehicle: saline
  T/C: 110 % of control
endpoint: mean survival time, dose: 8.0 mg/kg/injection, schedule: Q04DX003 (ip), vehicle: water
  T/C: 124 % of control
endpoint: mean survival time, dose: 22.2 mg/kg/injection, schedule: Q04DX003 (ip), vehicle: saline
  T/C: 103 % of control
endpoint: median survival time, dose: 0.13 mg/kg/injection, schedule: Q03HX008 (ip), vehicle: water
  T/C: 106 % of control
endpoint: median survival time, dose: 0.13 mg/kg/injection, schedule: Q03HX016 (ip), vehicle: water
  T/C: 97 % of control
endpoint: median survival time, dose: 0.13 mg/kg/injection, schedule: Q03HX024 (ip), vehicle: water
  T/C: 106 % of control
endpoint: median survival time, dose: 0.25 mg/kg/injection, schedule: Q03HX008 (ip), vehicle: water
  T/C: 107 % of control
endpoint: median survival time, dose: 0.25 mg/kg/injection, schedule: Q03HX016 (ip), vehicle: water
  T/C: 104 % of control
endpoint: median survival time, dose: 0.25 mg/kg/injection, schedule: Q03HX024 (ip), vehicle: water
  T/C: 112 % of control
endpoint: median survival time, dose: 0.5 mg/kg/injection, schedule: Q01DX009 (ip), vehicle: water
  T/C: 105 % of control
endpoint: median survival time, dose: 0.5 mg/kg/injection, schedule: Q01DX009 (sc), vehicle: water
  T/C: 101 % of control
endpoint: median survival time, dose: 0.5 mg/kg/injection, schedule: Q03HX008 (ip), vehicle: water
  T/C: 114 % of control
endpoint: median survival time, dose: 0.5 mg/kg/injection, schedule: Q03HX016 (ip), vehicle: water
  T/C: 105 % of control
endpoint: median survival time, dose: 0.5 mg/kg/injection, schedule: Q03HX024 (ip), vehicle: water
  T/C: 115 % of control
endpoint: median survival time, dose: 0.5 mg/kg/injection, schedule: Q04DX003 (ip), vehicle: water
  T/C: 100 % of control
endpoint: median survival time, dose: 1.0 mg/kg/injection, schedule: Q01DX001 (ip), vehicle: water
  T/C: 98 % of control
endpoint: median survival time, dose: 1.0 mg/kg/injection, schedule: Q01DX001 (sc), vehicle: water
  T/C: 96 % of control
endpoint: median survival time, dose: 1.0 mg/kg/injection, schedule: Q01DX009 (ip), vehicle: water
  T/C: 106 % of control
endpoint: median survival time, dose: 1.0 mg/kg/injection, schedule: Q01DX009 (sc), vehicle: water
  T/C: 97 % of control
endpoint: median survival time, dose: 1.0 mg/kg/injection, schedule: Q03HX008 (ip), vehicle: water
  T/C: 118 % of control
endpoint: median survival time, dose: 1.0 mg/kg/injection, schedule: Q03HX016 (ip), vehicle: water
  T/C: 109 % of control
endpoint: median survival time, dose: 1.0 mg/kg/injection, schedule: Q04DX003 (ip), vehicle: water
  T/C: 116 % of control and 111 % of control
endpoint: median survival time, dose: 1.0 mg/kg/injection, schedule: Q08DX002 (ip), vehicle: water
  T/C: 107 % of control
endpoint: median survival time, dose: 2.0 mg/kg/injection, schedule: Q01DX001 (ip), vehicle: water
  T/C: 105 % of control
endpoint: median survival time, dose: 2.0 mg/kg/injection, schedule: Q01DX001 (sc), vehicle: water
  T/C: 102 % of control
endpoint: median survival time, dose: 2.0 mg/kg/injection, schedule: Q01DX009 (ip), vehicle: water
  T/C: 116 % of control
endpoint: median survival time, dose: 2.0 mg/kg/injection, schedule: Q01DX009 (sc), vehicle: water
  T/C: 97 % of control
endpoint: median survival time, dose: 2.0 mg/kg/injection, schedule: Q04DX003 (ip), vehicle: water
  T/C: 103 % of control and 112 % of control
endpoint: median survival time, dose: 2.0 mg/kg/injection, schedule: Q08DX002 (ip), vehicle: water
  T/C: 107 % of control
endpoint: median survival time, dose: 4.0 mg/kg/injection, schedule: Q01DX001 (ip), vehicle: water
  T/C: 113 % of control
endpoint: median survival time, dose: 4.0 mg/kg/injection, schedule: Q01DX001 (sc), vehicle: water
  T/C: 98 % of control
endpoint: median survival time, dose: 4.0 mg/kg/injection, schedule: Q01DX009 (oral), vehicle: water
  T/C: 98 % of control
endpoint: median survival time, dose: 4.0 mg/kg/injection, schedule: Q01DX009 (sc), vehicle: water
  T/C: 97 % of control
endpoint: median survival time, dose: 4.0 mg/kg/injection, schedule: Q03HX016 (ip), vehicle: water
  T/C: 124 % of control
endpoint: median survival time, dose: 4.0 mg/kg/injection, schedule: Q03HX024 (ip), vehicle: water
  T/C: 104 % of control
endpoint: median survival time, dose: 4.0 mg/kg/injection, schedule: Q04DX003 (ip), vehicle: water
  T/C: 124 % of control
endpoint: median survival time, dose: 4.0 mg/kg/injection, schedule: Q08DX002 (ip), vehicle: water
  T/C: 113 % of control
endpoint: median survival time, dose: 8.0 mg/kg/injection, schedule: Q01DX001 (ip), vehicle: water
  T/C: 117 % of control
endpoint: median survival time, dose: 8.0 mg/kg/injection, schedule: Q01DX001 (sc), vehicle: water
  T/C: 98 % of control
endpoint: median survival time, dose: 8.0 mg/kg/injection, schedule: Q01DX009 (oral), vehicle: water
  T/C: 95 % of control
endpoint: median survival time, dose: 8.0 mg/kg/injection, schedule: Q01DX009 (sc), vehicle: water
  T/C: 103 % of control
endpoint: median survival time, dose: 8.0 mg/kg/injection, schedule: Q08DX002 (ip), vehicle: water
  T/C: 124 % of control
endpoint: median survival time, dose: 16.0 mg/kg/injection, schedule: Q01DX001 (oral), vehicle: water
  T/C: 97 % of control
endpoint: median survival time, dose: 16.0 mg/kg/injection, schedule: Q01DX001 (sc), vehicle: water
  T/C: 97 % of control
endpoint: median survival time, dose: 16.0 mg/kg/injection, schedule: Q01DX009 (oral), vehicle: water
  T/C: 97 % of control
endpoint: median survival time, dose: 16.0 mg/kg/injection, schedule: Q01DX009 (sc), vehicle: water
  T/C: 108 % of control
endpoint: median survival time, dose: 16.0 mg/kg/injection, schedule: Q04DX003 (ip), vehicle: water
  T/C: 124 % of control
endpoint: median survival time, dose: 32.0 mg/kg/injection, schedule: Q01DX001 (ip), vehicle: water
  T/C: 155 % of control
endpoint: median survival time, dose: 32.0 mg/kg/injection, schedule: Q01DX001 (oral), vehicle: water
  T/C: 96 % of control
endpoint: median survival time, dose: 32.0 mg/kg/injection, schedule: Q01DX001 (sc), vehicle: water
  T/C: 108 % of control
endpoint: median survival time, dose: 32.0 mg/kg/injection, schedule: Q04DX003 (ip), vehicle: water
  T/C: 106 % of control
endpoint: median survival time, dose: 64.0 mg/kg/injection, schedule: Q01DX001 (oral), vehicle: water
  T/C: 103 % of control
endpoint: median survival time, dose: 128.0 mg/kg/injection, schedule: Q01DX001 (oral), vehicle: water
  T/C: 102 % of control
endpoint: median survival time, dose: 256.0 mg/kg/injection, schedule: Q01DX001 (oral), vehicle: water
  T/C: 102 % of control

## N#C/C(=C/C=C/c1ccccc1)c1ccc([N+](=O)[O-])cc1
endpoint: mean survival time, dose: 100.0 mg/kg/injection, schedule: Q04DX002 (ip), vehicle: other
  T/C: 111 % of control
endpoint: mean survival time, dose: 200.0 mg/kg/injection, schedule: Q04DX002 (ip), vehicle: other
  T/C: 100 % of control
endpoint: mean survival time, dose: 400.0 mg/kg/injection, schedule: Q04DX002 (ip), vehicle: other
  T/C: 96 % of control

## Nc1ncnc2c1ncn2C1OC(COP(=O)(O)O)C(O)C1O.[NH-]C1CCCCC1[NH-].[Pt+2] (configuration not stated)
endpoint: median survival time, dose: 3.12 mg/kg/injection, schedule: Q04DX003 (ip), vehicle: saline
  T/C: 101 % of control
endpoint: median survival time, dose: 6.25 mg/kg/injection, schedule: Q04DX003 (ip), vehicle: saline
  T/C: 108 % of control
endpoint: median survival time, dose: 12.5 mg/kg/injection, schedule: Q04DX003 (ip), vehicle: saline
  T/C: 103 % of control
endpoint: median survival time, dose: 25.0 mg/kg/injection, schedule: Q04DX003 (ip), vehicle: saline
  T/C: 108 % of control
endpoint: median survival time, dose: 50.0 mg/kg/injection, schedule: Q04DX003 (ip), vehicle: saline
  T/C: 112 % of control
endpoint: median survival time, dose: 100.0 mg/kg/injection, schedule: Q04DX003 (ip), vehicle: saline
  T/C: 108 % of control
endpoint: median survival time, dose: 200.0 mg/kg/injection, schedule: Q04DX003 (ip), vehicle: saline
  T/C: 122 % of control

## Cc1cccc(-c2cc(Cl)c3cc(S(=O)(=O)F)ccc3n2)c1
endpoint: mean survival time, dose: 100.0 mg/kg/injection, schedule: Q01DX009 (ip), vehicle: saline with Tween-80
  T/C: 94 % of control
endpoint: mean survival time, dose: 100.0 mg/kg/injection, schedule: Q04DX003 (ip), vehicle: saline with Tween-80
  T/C: 104 % of control
endpoint: mean survival time, dose: 200.0 mg/kg/injection, schedule: Q01DX009 (ip), vehicle: saline with Tween-80
  T/C: 93 % of control
endpoint: mean survival time, dose: 200.0 mg/kg/injection, schedule: Q04DX003 (ip), vehicle: saline with Tween-80
  T/C: 101 % of control
endpoint: mean survival time, dose: 400.0 mg/kg/injection, schedule: Q01DX009 (ip), vehicle: saline with Tween-80
  T/C: 100 % of control
endpoint: mean survival time, dose: 400.0 mg/kg/injection, schedule: Q04DX003 (ip), vehicle: saline with Tween-80
  T/C: 92 % of control
